“And” between values parts separate entries of the source, which are not always exact repeats. Identical values can stand only once. The source made the active and inactive calls. Where only a bound is given, the exact number is not on record here.

Results on eight compounds are retold here after ChEMBL document CHEMBL1201862, “PubChem BioAssay data set” (2004).

The test system of one assay is Vero. The assay can be described thus: viability loss in Vero cells – cell-based, plate reader, cherry-pick samples, cytotoxicity control, dose response (AID 687020). Type of assay: functional. The note with it: Chlorocebus sabaeus.
The subject of a further assay is A549. The assay is described as follows: viability loss in A549 cells – cell-based, plate reader, cherry-pick samples, cytotoxicity control, dose response (AID 687028). Type of assay: functional. To be noted: Homo sapiens.
For another assay, the system named is BHK-21. The assay is described as follows: viability loss in BHK-21 cells – cell-based, plate reader, cherry-pick samples, cytotoxicity control, dose response (AID 687030). To be noted: Mesocricetus auratus. Type of assay: functional.
The nature of assay [1]: general mammalian cell viability loss – inhibitor set, cherry-pick, set 2, cytotoxicity control for miR-122 modulator project, dose response (AID 720697). The assay is classed as functional, cell-based.
The nature of assay [2]: general mammalian cell viability loss – activator set, cherry-pick, cytotoxicity control for miR-122 modulator project, dose response (AID 720690).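 Further: HEK293T human cells scored for general mammalian cytotoxicity.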 Type of assay: functional, cell-based.
The next assay concerns the target Paired box protein Pax-8 (Homo sapiens, UniProt Q06710). The assay can be described thus: PAX8 transcriptional activity inhibition in RMG-I – RMG-I cells, luciferase, cherry-pick, dose response (AID 687027).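 Further: luciferase reporter driven by Pax8 target thyroperoxidase promoter measured by SteadyGlo luminescence.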 The assay is classed as functional, cell-based.
A short description of assay [3]: CMV-driven luciferase expression suppression in HEK293 – cell-based, luminescence, dry powder, counter-screen for Pax8 inhibitor project, dose response (AID 743020). The assay is classed as functional. Background: A counterscreen serves to expose hits that act by an unwanted route or on another target.
The next assay has as its system HeLa. The assay can be described thus: viability loss in HeLa cells – cell-based, ATP luminescence, cherry-pick samples, cytotoxicity control, dose response (AID 687004). The assay is classed as functional. To be noted: Homo sapiens.
A further assay deals with HepG2. The assay can be described thus: HepG2 Cytotoxicity Assay Measured in Cell-Based System Using Plate Reader - 7071-02_Inhibitor_Dose_CherryPick_Activity. The assay is classed as functional. The note with it: Homo sapiens.
A short description of assay [4]: T. cruzi growth inhibition in host cells, dose response, cell-based, plate reader, dry powder, set 2 (AID 652275). The assay is classed as functional.
Assay [5] addresses Protein disulfide-isomerase (Homo sapiens, UniProt P07237). The assay is described as follows: inhibition of PDI-mediated insulin reduction – biochemical, turbidity, dry powder samples, set 2, confirmation (AID 652146).
Assay [6] has as its target Metabotropic glutamate receptor 3 (Rattus norvegicus, UniProt P31422). The assay can be described thus: inhibitors of rat mGlu3 Galpha15 signaling – TREx293 cells, calcium flux, mGlu3 NAM project, dose response (AID 651840). Type of assay: functional.
Assay [7] in a line: Late stage assay provider results from the probe development effort to identify inhibitors of the Plasmodium falciparum M17 Leucine Aminopeptidase (M17LAP): radiolabel-based cell-based dose response assay to identify compounds that inhibit P. falciparum growth in RBCs Set 2. The assay is classed as functional.
Another assay has as its target Major prion protein (Homo sapiens, UniProt P04156). Type of assay: functional, cell-based.
Assay [8] can be described thus: Luminescence Cell-Based Dose Retest to Confirm Inhibitors of Cancer Stem Cells. [Related pubchem assays (depositor defined):AID2717, AID2721]. To be noted: Homo sapiens. Type of assay: functional.
Assay [9] has as its target Nuclear receptor subfamily 0 group B member 1 (Homo sapiens, UniProt P51843). The assay is classed as functional, cell-based.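 Further: HEK293T cells transfected with SF-1 and DAX-1 plus StAR promoter luciferase reporter.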
The test system of the next assay is INS1. The assay is described as follows: INS-1E survival protection against cytokine death – cell-based, luminescence, retest, dose response (AID 449756).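 Further: cell death triggered by IL-1 beta plus TNF-alpha plus IFN-gamma mixture; protective hits raise ATP signal compared with cytokine alone wells.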 The assay is classed as functional.
A short description of assay [10]: cells.
Assay [11] can be described thus: non-specific 3'UTR reporter inhibition in Clone20-Shn3RL – cell-based, Renilla luciferase, cherry-picked, counter-screen for Shn3 inhibitor project, dose response (AID 624133). Type of assay: functional.
A short description of assay [12]: cells. Type of assay: functional, cell-based.
Assay [13] can be described thus: HEK-293T cell viability reduction – luminescence, B-cell screen hits, cytotoxicity control for BCR NF-kB inhibitor project, dose response (AID 489021).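 Further: HEK-293T cells carrying an NF-kB luciferase reporter; cells exposed to compound for about 14 hours before viability readout.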 Type of assay: functional, cell-based.
Assay [14] can be described thus: reduction of Shn3 3'UTR-driven luciferase in osteoblasts – cell-based, Clone20 osteoblasts, firefly luciferase, cherry-picked, dose response (AID 624132).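 Further: firefly luciferase luminescence from reporter carrying the Shn3 3'UTR in osteoblasts.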 The assay is classed as functional.

In the case of `COc1ccc(-c2cn(CC[C@@H]3CC[C@H](NC(=O)Nc4ccc(F)cc4)[C@H](CO)O3)nn2)cc1`, the concentration at half-maximal activity (AC50) in the assay on Vero is 24.2 µM (active); in the assay with A549, 21.3 µM (active); with BHK-21, 38.8 µM (active).
With `C[C@H](CO)N1C[C@H](C)[C@@H](CN(C)C(=O)c2ccc3c(c2)OCO3)Oc2cc(C#Cc3ccccc3F)ccc2S1(=O)=O`, the AC50 is 9.58 µM (active) in assay [1], 17.7 µM (active) in assay [2], 6.89 µM (active) at Paired box protein Pax-8 and 62.6 µM (active) in assay [3].
Consider `CN(C[C@H]1N[C@@H](CO)[C@H]1c1ccc(-c2cccc(F)c2)cc1)S(C)(=O)=O`, for which the AC50 is 20.3 µM (active) in the assay with HeLa and 23.7 µM (active) in the assay with HepG2.
Regarding `CC(C)N1CC2(CN(CC3CCCCC3)C2)Oc2c(NC(=O)c3ccncc3)cccc2C1=O`, the AC50 in assay [4] was 1.18 µM (active).
As for `CCOC(=O)C1(Cc2ccccc2)CCN(Cc2ccc(O)c(Cl)c2)CC1`, the AC50 in [5] was > 30 µM (inactive).
For the compound `CCCCC1(O)CCCN(C(=O)c2ccc(C#Cc3ccc(OC)cc3)cc2)C1` (centres undefined), in [6], the half-inhibitory concentration (IC50) was determined as 2.92 µM.
As for `CCCCOc1ccc(C(C)C(=O)NO)cc1` (centres undefined), the IC50 in assay [7] is 12.9 µM (inactive).
As for `C[C@H]1CCC/C=C/[C@@H]2C[C@H](O)C[C@H]2[C@H](O)/C=C/C(=O)O1` [BREFELDIN A], the IC50 was 3.5 µM (active) at Major prion protein; 0.134 µM (active) in assay [9]; > 138 µM (inactive) in “cells [10]”; > 67.6 µM (inactive) in “cells [12]”; > 80 µM (inactive) in assay [13]. For the same compound, the concentration at half-maximal activity (AC50) was < 0.16 µM (active) in [8]; 1.03 µM (active) in the assay with INS1 (Rattus norvegicus, INS1); 1.06 µM (active) in the assay with INS1 (ins1); 10.3 µM (active) in assay [11]; < 0.26 µM (active) on Paired box protein Pax-8; 3.15 µM (active) and 2.2 µM (active) in assay [14].

As usually defined, the AC50 is the concentration at which the activity in the assay is half-maximal. In general, IC50 refers to the concentration needed to halve the response being measured.
